Results as given in patent US10702524B2, “Use of a compound in repairing nerve injury” (priority 2017, dated 2020).
“Also recorded” adds a separate entry of the source.

Key:
[1] = test system: spinal cord tissues; experiment: HE staining of spinal cord tissues (void, inflammatory cells), rat spinal cord injury model; assay type: in vivo
Procedure: (§1) Animal models of acute spinal cord injury experiment were established by using an IMPACTOR MODEL-II spinal cord injury striking system. Sixty female Wistar rats with the age from 8 to 10 weeks and the weight from 230 to 250 g were divided into three groups with 20 rats in each group: a sham-surgery operated group, a control group (spinal cord injury group) and an experimental group, respectively. At 15 minutes before striking injury, the rats in the experimental group were injected with the compound of the formula (I) at a dose of 15 mg/kg body weight.
No spinal cord structure destroy was observed on the rats in the sham-surgery operated group. In the control group, significant changes occurred, mainly including hemorrhage, infiltration with a large number of inflammatory cells and spinal cord structural disorder, and it was observed that in grey matter, a large number of cells were lost, while in the white matter, significant swelling of neurites was observed and axonal terminals were in sphere.

[2] = test system: oligodendrocytes; experiment: CNpase immunohistochemical staining (oligodendrocyte survival), rat spinal cord injury model; assay type: in vivo
Procedure: as §1
At 48 hours and 2 weeks after injury, respectively, the three groups of spinal cord tissues were subjected to CNpase immunohistochemical staining.

[3] = test system: NEUN(+) neuron cells; experiment: NEUN immunohistochemical staining (neuron survival), rat spinal cord injury model; assay type: in vivo; conditions: 48 hours and 2 weeks after injury; experimental group vs control group
Procedure: as §1
At 48 hours and 2 weeks after injury, respectively, the three groups of rat spinal cord tissues were subjected to NEUN immunohistochemical staining.

[4] = test system: rats after spinal cord injury; experiment: BBB score of motor function of rear limbs after spinal cord injury; assay type: in vivo, rat; conditions: comparison between experimental group and control group
Procedure: as §1
Motor function of rear limbs of the tested animals were evaluated by scoring with BBB (Basso Beattie Bresnahan locomotor rating scale, BBB). The BBB scoring was one of internationally recognized objective standards regarding nerve functions of rats after spinal cord injury. In the project, the motor function of rear limbs of the rats was evaluated from 1 day before injury to 8 weeks after injury by double-blind independent observations and records with two persons and finally statistical analyses.

[5] = test system: Glial Fibrillary Acidic Protein (GFAP); experiment: GFAP frozen-section immunofluorescence (glial scar), rat spinal cord injury model; assay type: in vivo
Procedure: as §1
2. Testing Glial Fibrillary Acidic Protein (GFAP) Expression by Frozen-Section Immunofluorescence Histochemical Method
At 48 hours after injury, the spinal cord tissues were subjected to GFAP immunofluorescent staining.

[6] = test system: spinal cord tissues; experiment: TUNEL staining of spinal cord tissues (cell apoptosis), rat spinal cord injury model; assay type: in vivo; conditions: 48 hours after injury; 15 mg/kg; difference between control group and experimental group
Procedure: as §1
(§2) At 6 hours, 24 hours, 48 hours, 7 days, 14 days, 28 days and 56 days after injury, respectively, the rat spinal cord tissues were sampled for the Western Blot test and TUNEL staining, so as to test the inhibiting function of the compound of the formula (I) against the cell apoptosis at the spinal cord injury sites.
At 48 hours after injury, TUNEL staining was performed on three groups of spinal cord tissues. TUNEL-stained positive cells were located in the gray matter and white matter of the spinal cords, and the cell nuclei was stained brown-yellow and mostly distributed in the center of the injure and the margin thereof. […]

[7] = test system: Caspase 3; experiment: Caspase 3 expression of spinal cord tissue by Western Blot, rat spinal cord injury model; assay type: in vivo; conditions: 15 mg/kg, experimental group vs control group, gray level analysis
Procedure: as §1, §2

[8] = test system: TNF-α; experiment: TNF-α expression of spinal cord tissue by Western Blot, rat spinal cord injury model; assay type: in vivo; conditions: 15 mg/kg, experimental group vs control group, gray level analysis
Procedure: as §1
(§3) At 6 hours, 24 hours, 48 hours, 7 days, 14 days, and 28 days after injury, respectively, the rat spinal cord tissues were sampled for the Western Blot test, so as to test the inhibiting function of the compound of the formula (I) against the pro-inflammatory cytokines at the spinal cord injury sites.

[9] = test system: ICAM1; experiment: ICAM1 expression of spinal cord tissue by Western Blot, rat spinal cord injury model; assay type: in vivo; conditions: 15 mg/kg injected 15 minutes before striking injury, experimental group vs control group, gray level analysis
Procedure: as §1, §3

[10] = test system: IL-1β; experiment: IL-1β expression of spinal cord tissue by Western Blot, rat spinal cord injury model; assay type: in vivo; conditions: 15 mg/kg, experimental group vs control group, gray level analysis
Procedure: as §1, §3

For `CC(C)(C)OC(=O)c1ccc(NC23CC4CC(CC(C4)C2)C3)c(/N=C\c2cncnc2)c1` [compound of the formula (I)], the “area of voids (HE staining)” value ([1]; 8 weeks after spinal cord injury, control group compared to experimental group) was “significantly increased as compared to that in the experimental group”, the “inflammatory cells (HE staining, high magnification)” value ([1]; 8 weeks after spinal cord injury, experimental group vs control group) was “significantly reduced” and the “HE staining changes (hemorrhage, inflammatory cell infiltration, spinal cord structural disorder)” value ([1]; 48 hours after injury, 200×, 15 mg/kg, vs control group) was “could significantly alleviate the above series of changes”. For the same molecule, the histopathological scores ([1]; 48 hours after injury, comparison between control group and experimental group) was “did not have statistical significance”, the “CNpase positive area and positive cells” value ([2]; 2 weeks after injury, experimental group vs control group) was “had a larger positive area and more positive cells” and the CNpase positive area ([2]; 48 hours after injury, vs sham-surgery operated group) was “did not markedly differ from that in the shame-surgery operated group”. The “survival rate of the oligodendrocytes” value ([2]; experimental group vs control group) was “higher than that in the control group”, the “NEUN(+) neuron cells” value [3] was “more positive cells were present in the experimental group” and the “survival rate of neuron cells” value [3] was “higher than that in the control group”. The BBB score ([4]; 1 week after injury) was “did not have any statistical significance (p>0.05)”, the BBB score ([4]; 2 weeks after injury) was “had a statistical significance (p<0.05)” and the BBB score ([4]; 8 weeks after injury) was “had a statistical significance (p<0.01); also recorded: significantly higher than that of the control group”. For the same molecule, the BBB score ([4]; 48 hours after injury) was “did not have any statistical significance (p>0.05)”, the GFAP fluorescence ([5]; 2 weeks after surgery, control group vs experimental group) was “control group was still stronger than the experimental group” and the “quantity of the formed glial scars (GFAP immunofluorescent staining)” value ([5]; 48 hours after injury, experimental group vs control group) was “significantly decreased as compared to the control group”. For the same molecule, the “quantity of TUNEL-stained positive cells” value [6] was “had a statistical significance (p<0.05)”, the “Caspase 3 expression” value ([7]; 2 weeks after injury) was “significantly decreased” and the “Caspase 3 expression” value ([7]; 48 hours after injury) was “significantly decreased”. The TNF-α expression ([8]; 2 weeks after injury) was “significantly decreased”, the TNF-α expression ([8]; 48 hours after injury) was “decreased, close to the level of the shame-surgery operated group” and the ICAM1 expression ([9]; 2 weeks after injury) was “significantly decreased”. For the same molecule, the ICAM1 expression ([9]; 48 hours after injury) was “significantly decreased”, the IL-1β expression ([10]; 2 weeks after injury) was “significantly decreased” and the IL-1β expression ([10]; 48 hours after injury) was “significantly decreased, close to the level of the shame-surgery operated group”.
